# Results reported in paper PMC3968014, “Design and Synthesis of a Library of Lead-Like 2,4-Bisheterocyclic Substituted Thiophenes as Selective Dyrk/Clk Inhibitors” (PLoS ONE, 2014).
# What was measured:
# [1] = molecular target: T1, ROCK2 (Homo sapiens, UniProt O75116); test: Selectivity panel ROCK2; format: biochemical; conditions: 5 µM inhibitor
# T1 construct: purchased Life Technologies (Invitrogen SelectScreen); Dyrk1A, Dyrk2 and CK2α in-house or gifts
# [2] = molecular target: T2, CHEK2 (CHK2) (Homo sapiens, UniProt O96017); test: Selectivity panel CHEK2; format: biochemical; conditions: 5 µM inhibitor
# T2 construct: purchased Life Technologies (Invitrogen SelectScreen); Dyrk1A, Dyrk2 and CK2α in-house or gifts
# [3] = molecular target: T3, PHKG2 (Homo sapiens, UniProt P15735); test: Selectivity panel PHKG2; format: biochemical; conditions: 5 µM inhibitor
# T3 construct: purchased Life Technologies (Invitrogen SelectScreen); Dyrk1A, Dyrk2 and CK2α in-house or gifts
# [4] = molecular target: T4, IKBKB (IKK beta) (Homo sapiens, UniProt O14920); test: Selectivity panel IKBKB; format: biochemical; conditions: 5 µM inhibitor
# T4 construct: purchased Life Technologies (Invitrogen SelectScreen); Dyrk1A, Dyrk2 and CK2α in-house or gifts
# [5] = molecular target: T5, PRKCZ (PKC zeta) (Homo sapiens, UniProt Q05513); test: Selectivity panel PRKCZ; format: biochemical; conditions: 5 µM inhibitor
# T5 construct: purchased Life Technologies (Invitrogen SelectScreen); Dyrk1A, Dyrk2 and CK2α in-house or gifts
# [6] = molecular target: T6, CDK2/cyclin A (Homo sapiens, UniProt P24941); test: Selectivity panel CDK2/cyclin A; format: biochemical; conditions: 5 µM inhibitor
# T6 construct: purchased Life Technologies (Invitrogen SelectScreen); Dyrk1A, Dyrk2 and CK2α in-house or gifts
# [7] = molecular target: T7, PIM2 (Homo sapiens, UniProt Q9P1W9); test: Selectivity panel PIM2; format: biochemical; conditions: 5 µM inhibitor
# T7 construct: purchased Life Technologies (Invitrogen SelectScreen); Dyrk1A, Dyrk2 and CK2α in-house or gifts
# [8] = molecular target: T8, MAPKAPK2 (Homo sapiens, UniProt P49137); test: Selectivity panel MAPKAPK2; format: biochemical; conditions: 5 µM inhibitor
# T8 construct: purchased Life Technologies (Invitrogen SelectScreen); Dyrk1A, Dyrk2 and CK2α in-house or gifts
# [9] = molecular target: T9, TAOK2 (TAO1) (Homo sapiens, UniProt Q9UL54); test: Selectivity panel TAOK2; format: biochemical; conditions: 5 µM inhibitor
# T9 construct: purchased Life Technologies (Invitrogen SelectScreen); Dyrk1A, Dyrk2 and CK2α in-house or gifts
# [10] = molecular target: T10, PKN1 (PRK1) (Homo sapiens, UniProt Q16512); test: Selectivity panel PKN1; format: biochemical; conditions: 5 µM inhibitor
# T10 construct: purchased Life Technologies (Invitrogen SelectScreen); Dyrk1A, Dyrk2 and CK2α in-house or gifts
# [11] = molecular target: T11, SRPK1 (Homo sapiens, UniProt Q96SB4); test: Selectivity panel SRPK1; format: biochemical; conditions: 5 µM inhibitor
# T11 construct: purchased Life Technologies (Invitrogen SelectScreen); Dyrk1A, Dyrk2 and CK2α in-house or gifts
# [12] = molecular target: T12, DYRK4 (Homo sapiens, UniProt Q9NR20); test: Selectivity panel DYRK4; format: biochemical; conditions: 5 µM inhibitor
# T12 construct: purchased Life Technologies (Invitrogen SelectScreen); Dyrk1A, Dyrk2 and CK2α in-house or gifts
# [13] = molecular target: T13, MARK1 (MARK) (Homo sapiens, UniProt Q9P0L2); test: Selectivity panel MARK1; format: biochemical; conditions: 5 µM inhibitor
# T13 construct: purchased Life Technologies (Invitrogen SelectScreen); Dyrk1A, Dyrk2 and CK2α in-house or gifts
# [14] = molecular target: T14, FYN (Homo sapiens, UniProt P06241); test: Selectivity panel FYN; format: biochemical; conditions: 5 µM inhibitor
# T14 construct: purchased Life Technologies (Invitrogen SelectScreen); Dyrk1A, Dyrk2 and CK2α in-house or gifts
# [15] = molecular target: T15, MINK1 (Homo sapiens, UniProt Q8N4C8); test: Selectivity panel MINK1; format: biochemical; conditions: 5 µM inhibitor
# T15 construct: purchased Life Technologies (Invitrogen SelectScreen); Dyrk1A, Dyrk2 and CK2α in-house or gifts
# [16] = molecular target: T16, BTK (Homo sapiens, UniProt Q06187); test: Selectivity panel BTK; format: biochemical; conditions: 5 µM inhibitor
# T16 construct: purchased Life Technologies (Invitrogen SelectScreen); Dyrk1A, Dyrk2 and CK2α in-house or gifts
# [17] = molecular target: T17, RPS6KA5 (MSK1) (Homo sapiens, UniProt O75582); test: Selectivity panel RPS6KA5; format: biochemical; conditions: 5 µM inhibitor
# T17 construct: purchased Life Technologies (Invitrogen SelectScreen); Dyrk1A, Dyrk2 and CK2α in-house or gifts
# [18] = molecular target: T18, STK23 (MSSK1) (Homo sapiens, UniProt Q9UPE1); test: Selectivity panel STK23; format: biochemical; conditions: 5 µM inhibitor
# T18 construct: purchased Life Technologies (Invitrogen SelectScreen); Dyrk1A, Dyrk2 and CK2α in-house or gifts
# [19] = molecular target: T19, RET (Homo sapiens, UniProt P07949); test: Selectivity panel RET; format: biochemical; conditions: 5 µM inhibitor
# T19 construct: purchased Life Technologies (Invitrogen SelectScreen); Dyrk1A, Dyrk2 and CK2α in-house or gifts
# [20] = molecular target: T20, FGFR3 (Homo sapiens, UniProt P22607); test: Selectivity panel FGFR3; format: biochemical; conditions: 5 µM inhibitor
# T20 construct: purchased Life Technologies (Invitrogen SelectScreen); Dyrk1A, Dyrk2 and CK2α in-house or gifts
# [21] = molecular target: T21, PRKACA (PKA) (Homo sapiens, UniProt P17612); test: Selectivity panel PRKACA; format: biochemical; conditions: 5 µM inhibitor
# T21 construct: purchased Life Technologies (Invitrogen SelectScreen); Dyrk1A, Dyrk2 and CK2α in-house or gifts
# [22] = system: U2OS osteosarcoma cells; test: Caspase-3 Assay (Caspase-Glo 3/7); format: cell-based; conditions: for caspase-3/7 activity: starved U2OS cells, 48 hours, vs DMSO control
# Protocol: U2OS osteosarcoma cells were seeded in a 96 well flat bottom plate (15*10^3 cells/well). […] The induction of caspase-3/7 activity was measured using the Promega Caspase-Glo 3/7 assay system (Promega, LOT 0000054568). The resulting luciferase reaction signals that are proportional to the caspase induction were measured in a POLARstar plate reader (BMG Labtech, Offenburg, Germany). […] Values obtained for different compound concentrations were compared using the two-sided Student's t test; levels of significance thus obtained are indicated by asterisks.
# [23] = molecular target: T22, RPS6KA1 (RSK1) (Homo sapiens, UniProt Q15418); test: Selectivity panel RPS6KA1; format: biochemical; conditions: 5 µM inhibitor
# T22 construct: purchased Life Technologies (Invitrogen SelectScreen); Dyrk1A, Dyrk2 and CK2α in-house or gifts
# [24] = molecular target: T23, AKT1 (PKB alpha) (Homo sapiens, UniProt P31749); test: Selectivity panel AKT1; format: biochemical; conditions: 5 µM inhibitor
# T23 construct: purchased Life Technologies (Invitrogen SelectScreen); Dyrk1A, Dyrk2 and CK2α in-house or gifts
# [25] = system: V79 hamster lung fibroblast cells; test: ViaLight Toxicity Assay; format: cell-based; conditions: V79 cells, 5 µM, 48 hours
# Protocol: V79 hamster lung fibroblast cells were plated at a density of 45,000 cells per well in a white 96 well plate and allowed to adhere and grow for 24 hours. The compounds were then applied as dilutions in cell culture medium (DMEM with 10% FCS and penicillin/streptomycin mix) at a final concentration of 5, 10, and 20 µM, respectively. The plate was further incubated for 48 hours at 37°C in a humidified atmosphere containing 5% CO2. The ATP level was detected with a LONZA ViaLight™ Plus Kit according to protocol 1 of the vendor's instructions. Luminescence was measured in a POLARstar plate reader (BMG Labtech, Offenburg, Germany). The background luminescence was obtained from equally treated, cell-free wells containing serum, and subtracted from all values. Inhibition values obtained for different compound concentrations were compared using the two-sided Student's t-test; levels of significance thus obtained are indicated by asterisks.
# [26] = molecular target: T24, RAF1 (cRAF) Y340D Y341D (Homo sapiens, UniProt P04049, Y340D/Y341D); test: Selectivity panel RAF1; format: biochemical; conditions: 5 µM inhibitor
# T24 construct: purchased Life Technologies (Invitrogen SelectScreen); Dyrk1A, Dyrk2 and CK2α in-house or gifts
# [27] = molecular target: T25, TEK (Tie2) (Homo sapiens, UniProt Q02763); test: Selectivity panel TEK; format: biochemical; conditions: 5 µM inhibitor
# T25 construct: purchased Life Technologies (Invitrogen SelectScreen); Dyrk1A, Dyrk2 and CK2α in-house or gifts
# [28] = molecular target: T26, CLK2 (Homo sapiens, UniProt P49760); test: Selectivity panel CLK2; format: biochemical; conditions: 5 µM inhibitor
# T26 construct: purchased Life Technologies (Invitrogen SelectScreen); Dyrk1A, Dyrk2 and CK2α in-house or gifts
# [29] = molecular target: T27, LIMK1 (Homo sapiens, UniProt P53667); test: Selectivity panel LIMK1; format: biochemical; conditions: 5 µM inhibitor
# T27 construct: purchased Life Technologies (Invitrogen SelectScreen); Dyrk1A, Dyrk2 and CK2α in-house or gifts
# [30] = molecular target: T28, WEE1 (Homo sapiens, UniProt P30291); test: Selectivity panel WEE1; format: biochemical; conditions: 5 µM inhibitor
# T28 construct: purchased Life Technologies (Invitrogen SelectScreen); Dyrk1A, Dyrk2 and CK2α in-house or gifts
# [31] = molecular target: T29, RIPK2 (Homo sapiens, UniProt O43353); test: Selectivity panel RIPK2; format: biochemical; conditions: 5 µM inhibitor
# T29 construct: purchased Life Technologies (Invitrogen SelectScreen); Dyrk1A, Dyrk2 and CK2α in-house or gifts
# [32] = molecular target: T30, MAP2K6 (MKK6) (Homo sapiens, UniProt P52564); test: Selectivity panel MAP2K6; format: biochemical; conditions: 5 µM inhibitor
# T30 construct: purchased Life Technologies (Invitrogen SelectScreen); Dyrk1A, Dyrk2 and CK2α in-house or gifts
# [33] = molecular target: T31, RPS6KB1 (p70S6K) (Homo sapiens, UniProt P23443); test: Selectivity panel RPS6KB1; format: biochemical; conditions: 5 µM inhibitor
# T31 construct: purchased Life Technologies (Invitrogen SelectScreen); Dyrk1A, Dyrk2 and CK2α in-house or gifts
# [34] = molecular target: T32, NEK1 (Homo sapiens, UniProt Q96PY6); test: Selectivity panel NEK1; format: biochemical; conditions: 5 µM inhibitor
# T32 construct: purchased Life Technologies (Invitrogen SelectScreen); Dyrk1A, Dyrk2 and CK2α in-house or gifts
# T32 sequence (Q96PY6 whole entry): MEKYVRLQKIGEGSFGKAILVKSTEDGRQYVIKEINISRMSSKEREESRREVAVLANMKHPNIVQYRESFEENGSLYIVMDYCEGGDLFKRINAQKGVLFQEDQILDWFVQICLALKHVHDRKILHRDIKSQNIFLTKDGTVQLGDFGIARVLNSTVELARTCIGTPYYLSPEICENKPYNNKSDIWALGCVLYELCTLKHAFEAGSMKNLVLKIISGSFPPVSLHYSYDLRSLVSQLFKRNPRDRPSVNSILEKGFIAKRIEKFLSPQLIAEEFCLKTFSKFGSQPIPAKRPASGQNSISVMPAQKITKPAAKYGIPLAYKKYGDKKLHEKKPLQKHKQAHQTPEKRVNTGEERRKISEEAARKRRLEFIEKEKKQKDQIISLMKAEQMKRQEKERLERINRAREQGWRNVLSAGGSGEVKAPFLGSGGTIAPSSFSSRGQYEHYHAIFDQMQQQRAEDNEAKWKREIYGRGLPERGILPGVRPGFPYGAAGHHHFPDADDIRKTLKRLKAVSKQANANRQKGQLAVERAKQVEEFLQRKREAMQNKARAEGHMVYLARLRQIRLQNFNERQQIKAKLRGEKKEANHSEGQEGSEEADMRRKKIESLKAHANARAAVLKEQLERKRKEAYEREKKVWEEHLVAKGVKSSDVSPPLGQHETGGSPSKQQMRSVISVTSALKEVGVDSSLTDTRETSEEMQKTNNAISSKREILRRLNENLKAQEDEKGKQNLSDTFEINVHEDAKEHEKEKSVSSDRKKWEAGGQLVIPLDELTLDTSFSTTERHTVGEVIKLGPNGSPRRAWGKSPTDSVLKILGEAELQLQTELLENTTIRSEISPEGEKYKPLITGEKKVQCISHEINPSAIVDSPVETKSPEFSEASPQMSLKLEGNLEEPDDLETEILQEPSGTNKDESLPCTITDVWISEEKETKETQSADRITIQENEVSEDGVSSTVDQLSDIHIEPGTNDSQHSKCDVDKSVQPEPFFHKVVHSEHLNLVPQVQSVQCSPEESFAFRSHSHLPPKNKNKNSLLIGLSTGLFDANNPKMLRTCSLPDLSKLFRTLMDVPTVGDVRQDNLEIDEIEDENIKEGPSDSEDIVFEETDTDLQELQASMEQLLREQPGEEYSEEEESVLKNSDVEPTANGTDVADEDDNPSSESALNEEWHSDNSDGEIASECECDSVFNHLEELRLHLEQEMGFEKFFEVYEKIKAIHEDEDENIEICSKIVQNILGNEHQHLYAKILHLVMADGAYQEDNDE
# T10 sequence (Q16512 whole entry): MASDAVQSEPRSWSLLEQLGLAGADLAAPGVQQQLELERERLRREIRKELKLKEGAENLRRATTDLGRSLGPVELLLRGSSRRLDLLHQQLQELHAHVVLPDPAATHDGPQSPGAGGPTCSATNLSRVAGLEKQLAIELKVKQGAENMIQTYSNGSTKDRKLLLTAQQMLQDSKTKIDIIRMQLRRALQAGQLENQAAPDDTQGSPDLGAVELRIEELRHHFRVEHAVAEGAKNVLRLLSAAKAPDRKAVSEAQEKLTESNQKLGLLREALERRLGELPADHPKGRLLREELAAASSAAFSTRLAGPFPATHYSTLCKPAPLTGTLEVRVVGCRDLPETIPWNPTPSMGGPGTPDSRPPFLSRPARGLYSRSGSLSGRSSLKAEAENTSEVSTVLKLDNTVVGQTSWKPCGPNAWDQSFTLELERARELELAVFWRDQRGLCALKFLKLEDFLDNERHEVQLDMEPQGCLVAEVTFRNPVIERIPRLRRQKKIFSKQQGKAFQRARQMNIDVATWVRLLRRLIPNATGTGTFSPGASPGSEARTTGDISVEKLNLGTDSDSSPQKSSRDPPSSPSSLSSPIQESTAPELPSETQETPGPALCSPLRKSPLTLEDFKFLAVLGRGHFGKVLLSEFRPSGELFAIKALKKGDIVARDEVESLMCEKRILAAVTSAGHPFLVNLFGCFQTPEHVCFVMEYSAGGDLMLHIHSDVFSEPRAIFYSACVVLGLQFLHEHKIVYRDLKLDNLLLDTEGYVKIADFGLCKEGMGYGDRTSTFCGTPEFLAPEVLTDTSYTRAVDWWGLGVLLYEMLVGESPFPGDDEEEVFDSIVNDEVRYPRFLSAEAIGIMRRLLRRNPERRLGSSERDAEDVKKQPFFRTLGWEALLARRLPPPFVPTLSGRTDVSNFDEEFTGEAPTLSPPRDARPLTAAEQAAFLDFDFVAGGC
# T7 sequence (Q9P1W9 whole entry): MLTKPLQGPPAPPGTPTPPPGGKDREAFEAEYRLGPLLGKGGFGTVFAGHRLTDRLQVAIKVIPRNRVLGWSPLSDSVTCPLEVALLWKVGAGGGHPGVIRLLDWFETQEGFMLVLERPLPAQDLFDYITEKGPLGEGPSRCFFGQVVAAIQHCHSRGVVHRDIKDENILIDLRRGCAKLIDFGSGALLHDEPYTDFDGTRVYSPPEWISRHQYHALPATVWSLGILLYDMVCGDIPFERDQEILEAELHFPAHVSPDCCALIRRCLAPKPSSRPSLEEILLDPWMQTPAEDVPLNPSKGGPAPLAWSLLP
# T29 sequence (O43353 whole entry): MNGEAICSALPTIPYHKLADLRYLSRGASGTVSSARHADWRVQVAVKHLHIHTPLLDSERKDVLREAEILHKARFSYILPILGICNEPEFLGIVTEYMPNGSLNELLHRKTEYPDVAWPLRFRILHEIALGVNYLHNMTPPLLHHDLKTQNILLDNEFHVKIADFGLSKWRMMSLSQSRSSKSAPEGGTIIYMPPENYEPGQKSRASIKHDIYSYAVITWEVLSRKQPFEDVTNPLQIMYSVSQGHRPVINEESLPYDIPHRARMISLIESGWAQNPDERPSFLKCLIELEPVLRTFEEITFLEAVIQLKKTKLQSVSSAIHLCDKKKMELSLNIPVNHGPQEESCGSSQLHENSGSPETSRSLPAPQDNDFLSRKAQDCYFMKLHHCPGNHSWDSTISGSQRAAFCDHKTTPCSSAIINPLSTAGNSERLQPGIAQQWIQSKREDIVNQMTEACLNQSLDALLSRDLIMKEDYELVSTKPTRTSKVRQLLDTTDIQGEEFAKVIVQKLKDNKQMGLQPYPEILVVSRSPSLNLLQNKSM
# T20 sequence (P22607 23-806): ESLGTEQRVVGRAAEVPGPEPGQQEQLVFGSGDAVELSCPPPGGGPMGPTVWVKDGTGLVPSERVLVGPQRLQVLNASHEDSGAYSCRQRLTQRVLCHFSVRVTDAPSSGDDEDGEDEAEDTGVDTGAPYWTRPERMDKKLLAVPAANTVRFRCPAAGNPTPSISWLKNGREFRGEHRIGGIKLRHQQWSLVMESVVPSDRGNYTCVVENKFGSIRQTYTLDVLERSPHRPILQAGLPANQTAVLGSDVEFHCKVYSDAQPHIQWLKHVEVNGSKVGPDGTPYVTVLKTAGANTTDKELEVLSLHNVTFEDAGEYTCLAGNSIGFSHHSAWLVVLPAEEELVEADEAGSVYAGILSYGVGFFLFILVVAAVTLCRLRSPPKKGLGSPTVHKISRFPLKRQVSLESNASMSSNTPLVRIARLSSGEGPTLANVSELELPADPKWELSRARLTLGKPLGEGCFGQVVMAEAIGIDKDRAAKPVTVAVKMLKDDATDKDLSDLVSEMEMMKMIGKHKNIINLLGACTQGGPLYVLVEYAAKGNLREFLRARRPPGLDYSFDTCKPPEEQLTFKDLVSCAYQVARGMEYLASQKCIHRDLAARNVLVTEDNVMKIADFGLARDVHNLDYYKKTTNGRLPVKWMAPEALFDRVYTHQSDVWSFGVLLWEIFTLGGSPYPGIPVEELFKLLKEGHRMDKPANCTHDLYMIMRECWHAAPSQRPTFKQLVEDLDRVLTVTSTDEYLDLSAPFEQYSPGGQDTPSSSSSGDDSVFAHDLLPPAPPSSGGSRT
# T18 sequence (Q9UPE1 whole entry): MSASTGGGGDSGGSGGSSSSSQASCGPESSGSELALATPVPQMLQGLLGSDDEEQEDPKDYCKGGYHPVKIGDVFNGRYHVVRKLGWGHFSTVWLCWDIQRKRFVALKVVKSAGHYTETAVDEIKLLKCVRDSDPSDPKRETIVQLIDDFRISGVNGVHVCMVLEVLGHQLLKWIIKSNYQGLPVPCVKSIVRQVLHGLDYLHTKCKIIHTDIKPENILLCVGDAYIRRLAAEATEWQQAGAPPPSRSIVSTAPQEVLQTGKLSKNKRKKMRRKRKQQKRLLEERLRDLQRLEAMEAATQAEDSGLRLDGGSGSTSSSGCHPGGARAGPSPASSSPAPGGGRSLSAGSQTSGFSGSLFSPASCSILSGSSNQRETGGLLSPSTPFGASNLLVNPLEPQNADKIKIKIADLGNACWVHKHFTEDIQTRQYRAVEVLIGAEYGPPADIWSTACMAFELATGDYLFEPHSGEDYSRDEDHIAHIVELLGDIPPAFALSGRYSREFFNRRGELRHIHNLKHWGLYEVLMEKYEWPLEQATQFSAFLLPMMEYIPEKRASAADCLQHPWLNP
# T24 sequence (P04049 whole entry Y340D/Y341D): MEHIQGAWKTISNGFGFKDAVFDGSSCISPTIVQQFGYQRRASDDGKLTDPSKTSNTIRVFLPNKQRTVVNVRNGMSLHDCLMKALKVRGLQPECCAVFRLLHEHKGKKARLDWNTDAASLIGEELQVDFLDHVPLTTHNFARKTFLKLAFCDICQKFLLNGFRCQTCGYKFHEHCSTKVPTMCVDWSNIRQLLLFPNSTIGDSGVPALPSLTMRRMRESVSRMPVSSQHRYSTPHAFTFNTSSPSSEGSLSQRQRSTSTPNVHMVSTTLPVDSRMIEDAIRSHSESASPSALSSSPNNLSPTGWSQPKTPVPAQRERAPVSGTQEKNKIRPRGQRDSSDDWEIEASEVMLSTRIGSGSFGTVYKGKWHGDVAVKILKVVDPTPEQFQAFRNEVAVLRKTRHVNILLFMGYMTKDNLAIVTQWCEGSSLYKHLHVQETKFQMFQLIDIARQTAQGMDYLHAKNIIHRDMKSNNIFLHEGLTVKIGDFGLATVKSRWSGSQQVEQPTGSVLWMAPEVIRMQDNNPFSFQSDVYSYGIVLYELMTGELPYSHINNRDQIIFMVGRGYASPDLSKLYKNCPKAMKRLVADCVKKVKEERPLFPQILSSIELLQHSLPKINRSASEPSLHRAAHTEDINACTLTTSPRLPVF
structure (smiles),measurement,setting,value
"c1cncc(-c2csc(-c3cncs3)c2)c1 [Compound 48, 3-[5-(1,3-thiazol-5-yl)thiophen-3-yl]pyridine]",inhibition at 5 µM,[1],9%
same,inhibition at 5 µM,[2],-2%
same,inhibition at 5 µM,[3],-11%
same,inhibition at 5 µM,[4],12%
same,inhibition at 5 µM,[5],-25%
same,inhibition at 5 µM,[6],33%
same,inhibition at 5 µM,[7],5%
same,inhibition at 5 µM,[8],2%
same,inhibition at 5 µM,[9],-6%
same,inhibition at 5 µM,[10],-10%
same,inhibition at 5 µM,[11],1%
same,inhibition at 5 µM,[12],12%
same,inhibition at 5 µM,[13],1%
same,inhibition at 5 µM,[14],0%
same,inhibition at 5 µM,[15],19%
same,inhibition at 5 µM,[16],15%
same,inhibition at 5 µM,[17],10%
same,inhibition at 5 µM,[18],0%
same,inhibition at 5 µM,[19],1%
same,inhibition at 5 µM,[20],-1%
same,inhibition at 5 µM,[21],3%
same,caspase-3/7 activity,[22],clear increase
same,inhibition at 5 µM,[23],4%
same,inhibition at 5 µM,[24],3%
same,influence on cell viability (cellular ATP levels),[25],no influence on cell viability
same,inhibition at 5 µM,[26],37%
same,inhibition at 5 µM,[27],0%
same,inhibition at 5 µM,[28],78%
same,inhibition at 5 µM,[29],4%
same,inhibition at 5 µM,[30],10%
same,inhibition at 5 µM,[31],46%
same,inhibition at 5 µM,[32],7%
same,inhibition at 5 µM,[33],-4%
same,inhibition at 5 µM,[34],-5%
"c1cncc(-c2cc(-c3cncs3)cs2)c1 [Compound 29, 3-[4-(1,3-thiazol-5-yl)thiophen-2-yl]pyridine]",inhibition at 5 µM,[1],6%
same,inhibition at 5 µM,[2],1%
same,inhibition at 5 µM,[3],-12%
same,inhibition at 5 µM,[4],8%
same,inhibition at 5 µM,[5],-23%
same,inhibition at 5 µM,[6],22%
same,inhibition at 5 µM,[7],7%
same,inhibition at 5 µM,[8],2%
same,inhibition at 5 µM,[9],-6%
same,inhibition at 5 µM,[10],-16%
same,inhibition at 5 µM,[11],3%
same,inhibition at 5 µM,[12],13%
same,inhibition at 5 µM,[13],0%
same,inhibition at 5 µM,[14],-2%
same,inhibition at 5 µM,[15],36%
same,inhibition at 5 µM,[16],17%
same,inhibition at 5 µM,[17],15%
same,inhibition at 5 µM,[18],2%
same,inhibition at 5 µM,[19],-1%
same,inhibition at 5 µM,[20],-2%
same,inhibition at 5 µM,[21],1%
same,concentration at which induction of caspase-3/7 was already observed,"[22]; U2OS cells, not statistically significant at this concentration",0.5 µM
same,caspase-3/7 activity,[22],clear increase
same,inhibition at 5 µM,[23],2%
same,inhibition at 5 µM,[24],9%
same,influence on cell viability (cellular ATP levels),[25],no influence on cell viability
same,inhibition at 5 µM,[26],36%
same,inhibition at 5 µM,[27],-1%
same,inhibition at 5 µM,[28],72%
same,inhibition at 5 µM,[29],11%
same,inhibition at 5 µM,[30],17%
same,inhibition at 5 µM,[31],53%
same,inhibition at 5 µM,[32],5%
same,inhibition at 5 µM,[33],-2%
same,inhibition at 5 µM,[34],3%
